Results on one compound are retold here after patent EP0100158A2, “(3-pyridinyl)heteroalkarylalkanols, alkanoic acids and esters” (THE UPJOHN COMPANY, priority 1982, dated 1984).

For the assay, the target named is T1, TXA2 synthetase (Homo sapiens, UniProt P24557).
T1 construct: generated by mixing prostaglandin H2 (PGH2) with human platelet microsomes (HPM); from tissue; host or cells: human platelet microsomes
T1 sequence (P24557 1-533): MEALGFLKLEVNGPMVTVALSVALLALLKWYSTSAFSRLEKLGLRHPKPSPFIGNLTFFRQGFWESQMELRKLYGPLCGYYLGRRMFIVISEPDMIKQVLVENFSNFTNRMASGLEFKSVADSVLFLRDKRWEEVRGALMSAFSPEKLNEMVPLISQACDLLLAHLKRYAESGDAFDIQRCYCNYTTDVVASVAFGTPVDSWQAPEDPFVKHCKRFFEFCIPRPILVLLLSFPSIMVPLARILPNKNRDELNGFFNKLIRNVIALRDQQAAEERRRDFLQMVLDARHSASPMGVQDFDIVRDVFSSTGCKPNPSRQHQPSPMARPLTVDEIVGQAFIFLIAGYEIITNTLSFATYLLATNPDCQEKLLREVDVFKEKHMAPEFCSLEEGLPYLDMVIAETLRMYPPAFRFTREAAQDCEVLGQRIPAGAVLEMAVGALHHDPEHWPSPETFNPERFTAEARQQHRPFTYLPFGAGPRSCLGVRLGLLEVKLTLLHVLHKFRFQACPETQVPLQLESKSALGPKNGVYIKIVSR
In words: TXA2 inhibition test: TXA2 generated from PGH2 with human platelet microsomes, response measured on superfused rabbit aortic strips. Format: biochemical. Conditions: inhibition of TXA2 formation; test compound added to human platelet microsomes 5 minutes before mixing with PGH2; rabbit aorta readout; read-out: approximate ED50's (converted).

Experimental: The compounds of the present invention were tested for TXAz inhibition as follows: • Rabbit aortic strips were superfused in series with Krebs solution. Thromboxane Az (TXA2) was generated by mixing prostaglandin H2 (PGH2) with human platelet microsomes (HPM).
Potential inhibitors were tested by comparing the response of the rabbit aorta to the amount of TXAz produced by mixing PGH2 and HPM without the test compound in the reaction medium and then the amount of TXAz produced when the test compound was added to the HPM 5 minutes before the HPM was mixed with PGH2.

As for `O=C(O)c1cc(CNc2cccnc2)ccc1O`, the IC50 was approximately 37.6 nM.
